From article PMC9283524 (Nature Communications, 2022)
“And” between values parts separate entries of the source, which are not always exact repeats. Equal entries are not always repeated.

Key:
Experiment in all cases: cell-based
[1] = molecular target: turkey β1-AR W117^3.28A (Meleagris gallopavo, UniProt P07700, W117A)
Description: (§1) CHO cells (transfected with a control empty vector or wild-type or mutant turkey β1-AR) were plated onto six-well plates, and were pre-incubated with culture medium buffered with 0.5 mM IBMX for 30 min at 37 °C[20]. […] After culture medium removal, cells were treated with 0.1 M HCl for 10 minutes at room temperature. After centrifugation, the supernatant was used for cAMP quantification using the Direct Cyclic AMP Enzyme Immunoassay kit (Enzo Life Sciences). […] The cAMP assays were repeated three times, and the data are represented as mean ± SD of the three independent experiments. The analysis was done using the log(agonist) vs. response function of Prism 8 (GraphPad)[20].

[2] = molecular target: turkey β1-AR T203^ECL2A (Meleagris gallopavo, UniProt P07700, T203A)
turkey β1-AR T203^ECL2A, sequence (P07700 whole entry T203A): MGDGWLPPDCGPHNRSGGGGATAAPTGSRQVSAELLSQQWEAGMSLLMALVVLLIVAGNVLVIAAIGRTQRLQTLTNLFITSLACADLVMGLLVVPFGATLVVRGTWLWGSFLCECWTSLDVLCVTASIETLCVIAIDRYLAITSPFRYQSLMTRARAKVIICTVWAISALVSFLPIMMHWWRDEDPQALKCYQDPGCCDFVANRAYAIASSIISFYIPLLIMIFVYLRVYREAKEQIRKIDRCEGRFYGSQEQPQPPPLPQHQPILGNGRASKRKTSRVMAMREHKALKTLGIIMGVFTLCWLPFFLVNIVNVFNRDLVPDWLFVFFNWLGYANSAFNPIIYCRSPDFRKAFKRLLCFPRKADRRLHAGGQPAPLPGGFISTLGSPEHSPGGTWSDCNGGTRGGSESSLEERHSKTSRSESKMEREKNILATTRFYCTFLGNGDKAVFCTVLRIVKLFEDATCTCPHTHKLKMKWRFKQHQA
Description: as §1

[3] = molecular target: turkey β1-AR W330^7.40A (Meleagris gallopavo, UniProt P07700, W330A); details: for cAMP level: Fig 3 source data, W330A
turkey β1-AR W330^7.40A, sequence (P07700 whole entry W330A): as the sequence (P07700 whole entry T203A) above, with A203T, W330A counted along it
Description: as §1

[4] = molecular target: turkey β1-AR L101^2.64A (Meleagris gallopavo, UniProt P07700, L101A)
turkey β1-AR L101^2.64A, sequence (P07700 whole entry L101A): as the sequence (P07700 whole entry T203A) above, with L101A, A203T counted along it
Description: as §1

[5] = molecular target: turkey β1-AR V326^7.36A (Meleagris gallopavo, UniProt P07700, V326A)
turkey β1-AR V326^7.36A, sequence (P07700 whole entry V326A): as the sequence (P07700 whole entry T203A) above, with A203T, V326A counted along it
Description: as §1

[6] = CHO, 5 min, read-out: Efficacy (% of max cAMP level)

turkey β1-AR W117^3.28A, sequence (P07700 whole entry W117A): as the sequence (P07700 whole entry T203A) above, with W117A, A203T counted along it

Compound: CC(CCc1ccc(O)cc1)NCCc1ccc(O)c(O)c1 (centres unmarked) [Dobutamine, dobutamine]
- EC50 [1]: 7.76 µM
- Emax [1, 6]: 16 ± 0.8%
- EC50 [2]: 1.58 µM
- Emax [2, 6]: 99 ± 0.7%
- EC50 [3]: 2.95 µM
- Emax [3, 6]: 85 ± 0.8%
- cAMP level ([3]; log[ligand] (M) -3): 346 and 351 and 347
- cAMP level ([3]; log[ligand] (M) -4): 342 and 348 and 346
- cAMP level ([3]; log[ligand] (M) -5): 266 and 272 and 271
- cAMP level ([3]; log[ligand] (M) -6): 127 and 136 and 131
- cAMP level ([3]; log[ligand] (M) -7): 58 and 65 and 63
- cAMP level ([3]; log[ligand] (M) -8): 43 and 48
- cAMP level ([3]; log[ligand] (M) -9): 38 and 45 and 43
- EC50 [4]: 6.61 µM
- Emax [4, 6]: 37 ± 1.1%
- EC50 [5]: 7.59 µM
- Emax [5, 6]: 38 ± 1.2%
